Where two headings read alike, the source gives them in different places.
Tests used:
Assay in all cases: 72-hour CellTiter-Glo 2.0 growth inhibition screen (single agent, 9x9 combination dose matrix)
Assay type in all cases: cell-based
[1] = system: SW837; conditions: for EC50: SW837, 72 h
Protocol: (§1) Growth inhibition was determined using a 72-hour CellTiter-Glo®2.0 proliferation assay. Combination format was a 9×9 dose matrix. Six of the 20 cell lines received the original two combinations whilst the remaining 14 cell lines received two additional combinations resulting in four combinations in total. Results have been supplied as both Chalice Analyzer files (.mcc) and raw luminescence data.
(§2) Cell lines that have been preserved in liquid nitrogen are thawed and expanded in growth media (see Appendix I). Once cells have reached expected doubling times, screening begins. Cells are seeded in 25 μl of growth media in black 384-well tissue culture treated plates at 500 cells per well (as noted in Analyzer). Cells are equilibrated in assay plates via centrifugation and placed at 37° C. 5% CO2 for twenty-four hours before treatment. […] Compounds are transferred to assay plates using and Echo acoustic liquid handling system. […] of each compound was added at the appropriate concentration for all combination dose points. Therefore, final assay volume would be 25.05 μl. Assay plates are incubated with compound for 3 days and are then analyzed using CellTiter-Glo 2.0. All data points are collected via automated processes and are subject to quality control and analyzed.
(§3) If T≥V_0:100*(1−(T−V_0)/(V−V_0)) • where T is the signal measure for a test article, V is the untreated/vehicle-treated control measure, and Vo is the untreated/vehicle control measure at time zero (also colloquially referred as TO plates). This formula is derived from the Growth Inhibition calculation used in the National Cancer Institute's NCI-60 high throughput screen. For the purposes of this disclosure, all data analysis was performed in Growth Inhibition (except where noted).
(§4) Inhibition is also provided as a measure of cell viability. […] Inhibition of 100% represents no doubling of cell numbers during the treatment window. Both cytostatic and cytotoxic treatments can yield an Inhibition percentage of 100%. Inhibition percentage is calculated as the following: […]
(§5) The fractional inhibition for each component agent and combination point in the matrix is calculated relative to the median of all untreated/vehicle-treated control wells. The Synergy Score equation integrates the experimentally-observed activity volume at each point in the matrix in excess of a model surface numerically derived from the activity of the component agents using the Loewe model for additivity. Additional terms in the Synergy Score equation (above) are used to normalize for various dilution factors used for individual agents and to allow for comparison of synergy scores across an entire experiment. The inclusion of positive inhibition gating or an Idata multiplier removes noise near the zero-effect level, and biases results for synergistic interactions at that occur at high activity levels. Combinations with higher maximum Growth Inhibition (GI) effects or those which are synergistic at low concentrations will have higher Synergy Scores.
(§6) The CI is a rough estimate of how much drug was needed in combination relative to the single agent doses required to achieve the chosen effect level. CI values in the range of 0.5-0.7 are typical for in vitro measurements of current clinical combinations. The CI error (σCI) is calculated using standard error propagation through the CI calculation based on the isobologram errors. In the Chalice Analyzer, the Best CI is reported from the many CI values calculated for each Icut crossing combination. Among all the measured CI values, the one with the largest single-to-noise level (1−CI)/σCI is reported as the Best CI. Best CI Level is the effect level from which the CI is calculated.

[2] = system: SW48 KRAS (G12C/+); conditions: for EC50: SW48, 72 h, read-out: EC50
Protocol: as §1, §2, §3, §4, §5, §6

[3] = system: AsPC-1; conditions: for EC50: ASPC1, 72 h
Protocol: as §1, §2, §3, §4, §5, §6

[4] = system: SW48 KRAS (G12D/+); conditions: for EC50: SW48, 72 h, read-out: EC50
Protocol: as §1, §2, §3, §4, §5, §6

[5] = system: LS-513; conditions: for EC50: LS-513, 72 h
Protocol: as §1, §2, §3, §4, §5, §6

[6] = Homo sapiens, SW837, Colorectal, Additional Single Agent Responses (inhibition, % I), 72 h
[7] = Homo sapiens, SW837, Colorectal, growth inhibition (GI) curve, single agent, 72 h
[8] = SW837 (KRAS G12C), enhancer + MEI-522 (Voruciclib), 72 h
[9] = enhancer combined with MEI-522 (Voruciclib), SW837 (Colorectal), 72 hours, inhibition data
[10] = Homo sapiens, SW48 KRAS (G12C/+), Colorectal, Additional Single Agent Responses (inhibition, % I), 72 h
[11] = Homo sapiens, SW48 KRAS (G12C/+), Colorectal, growth inhibition (GI) curve, single agent, 72 h
[12] = SW48 KRAS (G12C/+), enhancer + MEI-522 (Voruciclib), 72 h
[13] = enhancer combined with MEI-522 (Voruciclib), SW48 KRAS (G12C/+) (Colorectal), 72 hours, inhibition data
[14] = AsPC-1 (KRAS G12D), enhancer + MEI-522 (Voruciclib), 72 h
[15] = enhancer combined with MEI-522 (Voruciclib), AsPC-1 (Pancreas), 72 hours, inhibition data
[16] = Homo sapiens, SW48 KRAS (G12D/+), Colorectal, Additional Single Agent Responses (inhibition, % I), 72 h
[17] = Homo sapiens, SW48 KRAS (G12D/+), Colorectal, growth inhibition (GI) curve, single agent, 72 h
[18] = SW48 KRAS (G12D/+), enhancer + MEI-522 (Voruciclib), 72 h
[19] = enhancer combined with MEI-522 (Voruciclib), SW48 KRAS (G12D/+) (Colorectal), 72 hours, inhibition data
[20] = Homo sapiens, LS-513, Colorectal, Additional Single Agent Responses (inhibition, % I), 72 h
[21] = Homo sapiens, LS-513, Colorectal, growth inhibition (GI) curve, single agent, 72 h
[22] = LS-513 (KRAS G12D), enhancer + MEI-522 (Voruciclib), 72 h
[23] = enhancer combined with MEI-522 (Voruciclib), LS-513 (Colorectal), 72 hours, inhibition data

With `CC[C@@H]1C(=O)N(C)c2cnc(Nc3ccc(C(=O)N[C@H]4CC[C@H](N5CCN(CC6CC6)CC5)CC4)cc3OC)nc2N1C(C)C` [Volasertib] the EC50 [1, 6] was 13.8 nM, the EC50 [1, 7] was 20.1 nM and the IC50 [1, 6] was 21 nM. For the same compound, the Emax ([1]; Homo sapiens, SW837, Colorectal, Additional Single Agent Responses, 72 h, read-out: Max Response (% I)) was 79%, the GI50 [1, 7] was 14.8 nM and the Emax ([1]; Homo sapiens, SW837, Colorectal, growth inhibition (GI), single agent, 72 h, read-out: Max Response (% GI)) was 128%. For the same compound, the “Best CI” value [1, 8] was 0.72, the “Bliss Volume” value [1, 8] was 4.69 and the HSA volume [1, 8] was 2.14. The “Loewe Volume” value [1, 8] was 0.39, the “Synergy Score” value [1, 8] was 5.42 and the “Response Area” value ([1]; SW837, Colorectal, Additional Single Agent Responses (inhibition, % I), 72 h) was 3.61. The “Response Area” value ([1]; SW837, Colorectal, growth inhibition (GI), AUC, single agent, 72 h) was 5.63, the “Best CI” value [1, 9] was 0.83 and the “Best CI Level” value [1, 9] was 20. For the same compound, the “Bliss Volume” value [1, 9] was 0.17, the HSA volume [1, 9] was 1.01 and the “Loewe Volume” value [1, 9] was 0.29. The “Synergy Score” value [1, 9] was 1.39, the EC50 [2, 10] was 4.3 nM and the EC50 [2, 11] was 4.4 nM. For the same compound, the IC50 [2, 10] was 4.6 nM, the Emax ([2]; Homo sapiens, SW48 KRAS (G12C/+), Colorectal, Additional Single Agent Responses, 72 h, read-out: Max Response (% I)) was 90% and the GI50 [2, 11] was 4.4 nM. The Emax ([2]; Homo sapiens, SW48 KRAS (G12C/+), Colorectal, growth inhibition (GI), single agent, 72 h, read-out: Max Response (% GI)) was 141%, the “Response Area” value ([2]; SW48 KRAS (G12C/+), Colorectal, Additional Single Agent Responses (inhibition, % I), 72 h) was 3.98 and the “Response Area” value ([2]; SW48 KRAS (G12C/+), Colorectal, growth inhibition (GI), AUC, single agent, 72 h) was 5.48. The “Best CI” value [2, 12] was 0.08, the “Bliss Volume” value [2, 12] was 5.42 and the HSA volume [2, 12] was 1.24. For the same compound, the “Loewe Volume” value [2, 12] was 2.81, the “Synergy Score” value [2, 12] was 11.77 and the “Best CI” value [2, 13] was 0.13. The “Best CI Level” value [2, 13] was 80, the “Bliss Volume” value [2, 13] was −0.04 and the HSA volume [2, 13] was 0.65. For the same compound, the “Loewe Volume” value [2, 13] was 1.39, the “Synergy Score” value [2, 13] was 3.33 and the “Best CI” value [3, 14] was 0.51. For the same compound, the “Bliss Volume” value [3, 14] was −1.02, the HSA volume [3, 14] was 0.04 and the “Loewe Volume” value [3, 14] was −0.85. The “Synergy Score” value [3, 14] was 1.87, the “Response Area” value ([3]; AsPC-1, Pancreas, Additional Single Agent Responses (inhibition, % I), 72 h) was 3.11 and the “Response Area” value ([3]; AsPC-1, Pancreas, growth inhibition (GI), AUC, single agent, 72 h) was 4.36. It also gave an EC50 ([3]; Homo sapiens, AsPC-1, Pancreas, Additional Single Agent Responses (inhibition, % I), 72 h) of 12.2 nM, an EC50 ([3]; Homo sapiens, AsPC-1, Pancreas, growth inhibition (GI) curve, single agent, 72 h) of 12.2 nM and an IC50 ([3]; Homo sapiens, ASPC1, AsPC-1, Pancreas, Additional Single Agent Responses (inhibition, % I), 72 h) of 23.1 nM. The Emax ([3]; Homo sapiens, ASPC1, AsPC-1, Pancreas, Additional Single Agent Responses, 72 h, read-out: Max Response (% I)) was 69%, the GI50 ([3]; Homo sapiens, ASPC1, AsPC-1, Pancreas, growth inhibition (GI) curve, single agent, 72 h) was 13.7 nM and the Emax ([3]; Homo sapiens, ASPC1, AsPC-1, Pancreas, growth inhibition (GI), single agent, 72 h, read-out: Max Response (% GI)) was 96%. The “Best CI” value [3, 15] was 0.89, the “Best CI Level” value [3, 15] was 20 and the “Bliss Volume” value [3, 15] was −2.24. The HSA volume [3, 15] was −0.18, the “Loewe Volume” value [3, 15] was −0.80 and the “Synergy Score” value [3, 15] was 0.83. The EC50 [4, 16] was 4.1 nM, the EC50 [4, 17] was 4.2 nM and the IC50 [4, 16] was 4.8 nM. For the same compound, the Emax ([4]; Homo sapiens, SW48 KRAS (G12D/+), Colorectal, Additional Single Agent Responses, 72 h, read-out: Max Response (% I)) was 86%, the GI50 [4, 17] was 4.3 nM and the Emax ([4]; Homo sapiens, SW48 KRAS (G12D/+), Colorectal, growth inhibition (GI), single agent, 72 h, read-out: Max Response (% GI)) was 148%. The “Response Area” value ([4]; SW48 KRAS (G12D/+), Colorectal, Additional Single Agent Responses (inhibition, % I), 72 h) was 3.32, the “Response Area” value ([4]; SW48 KRAS (G12D/+), Colorectal, growth inhibition (GI), AUC, single agent, 72 h) was 5.01 and the “Best CI” value [4, 18] was 0.06. The “Bliss Volume” value [4, 18] was 8.36, the HSA volume [4, 18] was 1.07 and the “Loewe Volume” value [4, 18] was 3.66. For the same compound, the “Synergy Score” value [4, 18] was 13.34, the “Best CI” value [4, 19] was 0.08 and the “Bliss Volume” value [4, 19] was 0.41. For the same compound, the HSA volume [4, 19] was 0.61, the “Loewe Volume” value [4, 19] was 2.08 and the “Synergy Score” value [4, 19] was 4.06. It also gave a Best CI Level ([4]; enhancer combined with MEI-522 (Voruciclib), SW48 KRAS (G12D/+) (Colorectal), 72 hours, inhibition data, unit assumed) of 80%, an EC50 [5, 20] of 18.6 nM and an EC50 [5, 21] of 18.5 nM. For the same compound, the IC50 [5, 20] was 23.9 nM, the Emax ([5]; Homo sapiens, LS-513, Colorectal, Additional Single Agent Responses, 72 h, read-out: Max Response (% I)) was 74% and the GI50 [5, 21] was 20 nM. For the same compound, the Emax ([5]; Homo sapiens, LS-513, Colorectal, growth inhibition (GI), single agent, 72 h, read-out: Max Response (% GI)) was 91%, the “Best CI” value [5, 22] was 0.60 and the “Bliss Volume” value [5, 22] was 3.16. The HSA volume [5, 22] was 1.53, the “Loewe Volume” value [5, 22] was 1.21 and the “Synergy Score” value [5, 22] was 5.33. For the same compound, the “Response Area” value ([5]; LS-513, Colorectal, Additional Single Agent Responses (inhibition, % I), 72 h) was 3.44, the “Response Area” value ([5]; LS-513, Colorectal, growth inhibition (GI), AUC, single agent, 72 h) was 4.22 and the “Best CI” value [5, 23] was 0.62. For the same compound, the “Best CI Level” value [5, 23] was 80, the “Bliss Volume” value [5, 23] was −1.28 and the HSA volume [5, 23] was 0.04. For the same compound, the “Loewe Volume” value [5, 23] was 0.06 and the “Synergy Score” value [5, 23] was 1.44.

— patent US20240016781A1, “TREATMENT OF KRAS MUTANT CANCERS” (MEI Pharma, Inc., priority 2020, published 2024)
